Values of other authors as cited in patent US20100015174A1, “METHOD TO CONTROL DENGUE VIRUSES IN HUMANS BY PICOLINIC ACID AND DERIVATIVES THEREOF” (priority 2008, published 2010).

Columns and labels:
[1] = test system: human aortic endothelial cells; conditions: cited from earlier work
J2 retrovirus = conditions: GG2EE transformed macrophages; cited from earlier work

| Compound | change of reactive oxygen species (ROS) [1] [%] | change of vascular adhesion molecules (VCAM-I) [1] [%] | increase of NAD(P)H levels [1] [%] | J2 retrovirus expression (J2 retrovirus) |
| --- | --- | --- | --- | --- |
| O=C(O)c1cccnc1 [Niacin, Nicotinic acid] | > 50 | 80 | 54 |  |
| IFN-gamma: type II (immune) interferon |  |  |  | not affected |
